Test results as given in the NIST ThermoML archive (doi:10.1016/j.jct.2017.03.006).

Experiment: xn = mol fraction of the nth substance listed
Conditions: Liquid; for viscosity: Concentric cylinders viscometry; for mass density: Vibrating tube method

Cc1ccc(C)c(C)c1 [1,2,4-trimethylbenzene] + CCCCO
Conditions | mass density [kg/m3] | viscosity [mPa·s]
323.15 K, 100 kPa, x2 = 0.7975 | – | 1.027
323.15 K, 100 kPa, x2 = 0.9131 | – | 1.22
333.15 K, 100 kPa, x2 = 0 | 843.6 | 0.562
333.15 K, 100 kPa, x2 = 0.1002 | – | 0.552
333.15 K, 100 kPa, x2 = 0.1005 | 836.9 | –
333.15 K, 100 kPa, x2 = 0.2261 | 830.2 | –
333.15 K, 100 kPa, x2 = 0.2327 | – | 0.564
333.15 K, 100 kPa, x2 = 0.2999 | 826.1 | –
333.15 K, 100 kPa, x2 = 0.3 | – | 0.582
333.15 K, 100 kPa, x2 = 0.3966 | 820.6 | –
333.15 K, 100 kPa, x2 = 0.3969 | – | 0.6
333.15 K, 100 kPa, x2 = 0.5289 | 812.8 | –
333.15 K, 100 kPa, x2 = 0.53 | – | 0.652
333.15 K, 100 kPa, x2 = 0.6367 | 805.8 | –
333.15 K, 100 kPa, x2 = 0.637 | – | 0.711
333.15 K, 100 kPa, x2 = 0.7249 | 799.8 | –
333.15 K, 100 kPa, x2 = 0.7975 | – | 0.853
333.15 K, 100 kPa, x2 = 0.7977 | 794.5 | –
333.15 K, 100 kPa, x2 = 0.9131 | 785.6 | 0.996
333.15 K, 1000 kPa, x2 = 0 | 844.4 | –
333.15 K, 1000 kPa, x2 = 0.1005 | 837.7 | –
333.15 K, 1000 kPa, x2 = 0.2261 | 831 | –
333.15 K, 1000 kPa, x2 = 0.2999 | 826.9 | –
333.15 K, 1000 kPa, x2 = 0.3966 | 821.4 | –
333.15 K, 1000 kPa, x2 = 0.5289 | 813.6 | –
333.15 K, 1000 kPa, x2 = 0.6367 | 806.6 | –
333.15 K, 1000 kPa, x2 = 0.7249 | 800.7 | –
333.15 K, 1000 kPa, x2 = 0.7977 | 795.3 | –
333.15 K, 1000 kPa, x2 = 0.9131 | 786.4 | –
333.15 K, 5000 kPa, x2 = 0 | 847.6 | –
333.15 K, 5000 kPa, x2 = 0.1005 | 841 | –
333.15 K, 5000 kPa, x2 = 0.2261 | 834.4 | –
333.15 K, 5000 kPa, x2 = 0.2999 | 830.3 | –
333.15 K, 5000 kPa, x2 = 0.3966 | 824.8 | –
333.15 K, 5000 kPa, x2 = 0.5289 | 817.1 | –
333.15 K, 5000 kPa, x2 = 0.6367 | 810.1 | –
333.15 K, 5000 kPa, x2 = 0.7249 | 804.2 | –
333.15 K, 5000 kPa, x2 = 0.7977 | 798.8 | –
333.15 K, 5000 kPa, x2 = 0.9131 | 789.9 | –
333.15 K, 10000 kPa, x2 = 0 | 851.4 | –
333.15 K, 10000 kPa, x2 = 0.1005 | 844.9 | –
333.15 K, 10000 kPa, x2 = 0.2261 | 838.3 | –
333.15 K, 10000 kPa, x2 = 0.2999 | 834.2 | –
333.15 K, 10000 kPa, x2 = 0.3966 | 828.8 | –
333.15 K, 10000 kPa, x2 = 0.5289 | 821.1 | –
333.15 K, 10000 kPa, x2 = 0.6367 | 814.2 | –
333.15 K, 10000 kPa, x2 = 0.7249 | 808.3 | –
333.15 K, 10000 kPa, x2 = 0.7977 | 803 | –
333.15 K, 10000 kPa, x2 = 0.9131 | 794.1 | –
333.15 K, 20000 kPa, x2 = 0 | 858.6 | –
333.15 K, 20000 kPa, x2 = 0.1005 | 852.4 | –
333.15 K, 20000 kPa, x2 = 0.2261 | 845.8 | –
333.15 K, 20000 kPa, x2 = 0.2999 | 841.8 | –
333.15 K, 20000 kPa, x2 = 0.3966 | 836.4 | –
333.15 K, 20000 kPa, x2 = 0.5289 | 828.7 | –
333.15 K, 20000 kPa, x2 = 0.6367 | 821.9 | –
333.15 K, 20000 kPa, x2 = 0.7249 | 816 | –
333.15 K, 20000 kPa, x2 = 0.7977 | 810.7 | –
333.15 K, 20000 kPa, x2 = 0.9131 | 801.9 | –
333.15 K, 30000 kPa, x2 = 0 | 865.3 | –
333.15 K, 30000 kPa, x2 = 0.1005 | 859.2 | –
333.15 K, 30000 kPa, x2 = 0.2261 | 852.8 | –
333.15 K, 30000 kPa, x2 = 0.2999 | 848.7 | –
333.15 K, 30000 kPa, x2 = 0.3966 | 843.4 | –
333.15 K, 30000 kPa, x2 = 0.5289 | 835.7 | –
333.15 K, 30000 kPa, x2 = 0.6367 | 828.9 | –
333.15 K, 30000 kPa, x2 = 0.7249 | 823.1 | –
333.15 K, 30000 kPa, x2 = 0.7977 | 817.8 | –
333.15 K, 30000 kPa, x2 = 0.9131 | 809.1 | –
333.15 K, 40000 kPa, x2 = 0 | 871.6 | –
333.15 K, 40000 kPa, x2 = 0.1005 | 865.5 | –
333.15 K, 40000 kPa, x2 = 0.2261 | 859.2 | –
333.15 K, 40000 kPa, x2 = 0.2999 | 855.2 | –
333.15 K, 40000 kPa, x2 = 0.3966 | 849.8 | –
333.15 K, 40000 kPa, x2 = 0.5289 | 842.2 | –
333.15 K, 40000 kPa, x2 = 0.6367 | 835.5 | –
333.15 K, 40000 kPa, x2 = 0.7249 | 829.6 | –
333.15 K, 40000 kPa, x2 = 0.7977 | 824.4 | –
333.15 K, 40000 kPa, x2 = 0.9131 | 815.6 | –
333.15 K, 50000 kPa, x2 = 0 | 877.4 | –
333.15 K, 50000 kPa, x2 = 0.1005 | 871.4 | –
333.15 K, 50000 kPa, x2 = 0.2261 | 865.1 | –
333.15 K, 50000 kPa, x2 = 0.2999 | 861.1 | –
333.15 K, 50000 kPa, x2 = 0.3966 | 855.9 | –
333.15 K, 50000 kPa, x2 = 0.5289 | 848.3 | –
333.15 K, 50000 kPa, x2 = 0.6367 | 841.6 | –
333.15 K, 50000 kPa, x2 = 0.7249 | 835.7 | –
333.15 K, 50000 kPa, x2 = 0.7977 | 830.5 | –
333.15 K, 50000 kPa, x2 = 0.9131 | 821.7 | –
333.15 K, 60000 kPa, x2 = 0 | 883 | –
333.15 K, 60000 kPa, x2 = 0.1005 | 877.1 | –
333.15 K, 60000 kPa, x2 = 0.2261 | 870.8 | –
333.15 K, 60000 kPa, x2 = 0.2999 | 866.8 | –
333.15 K, 60000 kPa, x2 = 0.3966 | 861.6 | –
333.15 K, 60000 kPa, x2 = 0.5289 | 854 | –
333.15 K, 60000 kPa, x2 = 0.6367 | 847.3 | –
333.15 K, 60000 kPa, x2 = 0.7249 | 841.4 | –
333.15 K, 60000 kPa, x2 = 0.7977 | 836.3 | –
333.15 K, 60000 kPa, x2 = 0.9131 | 827.5 | –
333.15 K, 70000 kPa, x2 = 0 | 888.2 | –
333.15 K, 70000 kPa, x2 = 0.1005 | 882.3 | –
333.15 K, 70000 kPa, x2 = 0.2261 | 876.2 | –
333.15 K, 70000 kPa, x2 = 0.2999 | 872.2 | –
333.15 K, 70000 kPa, x2 = 0.3966 | 866.9 | –
333.15 K, 70000 kPa, x2 = 0.5289 | 859.5 | –
333.15 K, 70000 kPa, x2 = 0.6367 | 852.7 | –
333.15 K, 70000 kPa, x2 = 0.7249 | 846.9 | –
333.15 K, 70000 kPa, x2 = 0.7977 | 841.7 | –
333.15 K, 70000 kPa, x2 = 0.9131 | 832.9 | –
333.15 K, 80000 kPa, x2 = 0 | 893.2 | –
333.15 K, 80000 kPa, x2 = 0.1005 | 887.4 | –
333.15 K, 80000 kPa, x2 = 0.2261 | 881.2 | –
333.15 K, 80000 kPa, x2 = 0.2999 | 877.2 | –
333.15 K, 80000 kPa, x2 = 0.3966 | 872 | –
333.15 K, 80000 kPa, x2 = 0.5289 | 864.6 | –
333.15 K, 80000 kPa, x2 = 0.6367 | 857.8 | –
333.15 K, 80000 kPa, x2 = 0.7249 | 852 | –
333.15 K, 80000 kPa, x2 = 0.7977 | 846.8 | –
333.15 K, 80000 kPa, x2 = 0.9131 | 838 | –
333.15 K, 90000 kPa, x2 = 0 | 898 | –
333.15 K, 90000 kPa, x2 = 0.1005 | 892.2 | –
333.15 K, 90000 kPa, x2 = 0.2261 | 886 | –
333.15 K, 90000 kPa, x2 = 0.2999 | 882.1 | –
333.15 K, 90000 kPa, x2 = 0.3966 | 876.9 | –
333.15 K, 90000 kPa, x2 = 0.5289 | 869.4 | –
333.15 K, 90000 kPa, x2 = 0.6367 | 862.7 | –
333.15 K, 90000 kPa, x2 = 0.7249 | 856.9 | –
333.15 K, 90000 kPa, x2 = 0.7977 | 851.7 | –
333.15 K, 90000 kPa, x2 = 0.9131 | 842.9 | –
333.15 K, 100000 kPa, x2 = 0 | 902.5 | –
333.15 K, 100000 kPa, x2 = 0.1005 | 896.8 | –
333.15 K, 100000 kPa, x2 = 0.2261 | 890.7 | –
333.15 K, 100000 kPa, x2 = 0.2999 | 886.7 | –
333.15 K, 100000 kPa, x2 = 0.3966 | 881.5 | –
333.15 K, 100000 kPa, x2 = 0.5289 | 874.1 | –
333.15 K, 100000 kPa, x2 = 0.6367 | 867.4 | –
333.15 K, 100000 kPa, x2 = 0.7249 | 861.6 | –
333.15 K, 100000 kPa, x2 = 0.7977 | 856.4 | –
333.15 K, 100000 kPa, x2 = 0.9131 | 847.6 | –
333.15 K, 120000 kPa, x2 = 0 | 911.1 | –
333.15 K, 120000 kPa, x2 = 0.1005 | 905.4 | –
333.15 K, 120000 kPa, x2 = 0.2261 | 899.4 | –
333.15 K, 120000 kPa, x2 = 0.2999 | 895.4 | –
333.15 K, 120000 kPa, x2 = 0.3966 | 890.3 | –
333.15 K, 120000 kPa, x2 = 0.5289 | 882.8 | –
333.15 K, 120000 kPa, x2 = 0.6367 | 876.1 | –
333.15 K, 120000 kPa, x2 = 0.7249 | 870.3 | –
333.15 K, 120000 kPa, x2 = 0.7977 | 865.2 | –
333.15 K, 120000 kPa, x2 = 0.9131 | 856.4 | –
333.15 K, 140000 kPa, x2 = 0 | 919 | –
333.15 K, 140000 kPa, x2 = 0.1005 | 913.3 | –
333.15 K, 140000 kPa, x2 = 0.2261 | 907.6 | –
333.15 K, 140000 kPa, x2 = 0.2999 | 903.3 | –
333.15 K, 140000 kPa, x2 = 0.3966 | 898.3 | –
333.15 K, 140000 kPa, x2 = 0.5289 | 891 | –
333.15 K, 140000 kPa, x2 = 0.6367 | 884.3 | –
333.15 K, 140000 kPa, x2 = 0.7249 | 878.6 | –
333.15 K, 140000 kPa, x2 = 0.7977 | 873.5 | –
333.15 K, 140000 kPa, x2 = 0.9131 | 864.5 | –
